Test [1] deals with T1, M6PR (Homo sapiens, UniProt P11717).
T1 construct: endogenous in cells; host or cells: HUVEC (parental, or transduced with LV-143Spg / control LV)
The experiment in a line: M6P competition of IDUA-myc uptake in hCMEC/D3 cells. Conditions: 1 h exposure to IDUA-myc conditioned medium (~20,000 U/mL), read-out: Median inhibitory concentration (IC50) of IDUA-myc uptake. The class given is cell-based.

Test [2] deals with T1, M6PR. The test is described as follows: M6P competition of IDUA-myc uptake in HUVEC. The class given is cell-based.

SMILES strings stand for the structures.

T1 sequence (P11717 41-2491): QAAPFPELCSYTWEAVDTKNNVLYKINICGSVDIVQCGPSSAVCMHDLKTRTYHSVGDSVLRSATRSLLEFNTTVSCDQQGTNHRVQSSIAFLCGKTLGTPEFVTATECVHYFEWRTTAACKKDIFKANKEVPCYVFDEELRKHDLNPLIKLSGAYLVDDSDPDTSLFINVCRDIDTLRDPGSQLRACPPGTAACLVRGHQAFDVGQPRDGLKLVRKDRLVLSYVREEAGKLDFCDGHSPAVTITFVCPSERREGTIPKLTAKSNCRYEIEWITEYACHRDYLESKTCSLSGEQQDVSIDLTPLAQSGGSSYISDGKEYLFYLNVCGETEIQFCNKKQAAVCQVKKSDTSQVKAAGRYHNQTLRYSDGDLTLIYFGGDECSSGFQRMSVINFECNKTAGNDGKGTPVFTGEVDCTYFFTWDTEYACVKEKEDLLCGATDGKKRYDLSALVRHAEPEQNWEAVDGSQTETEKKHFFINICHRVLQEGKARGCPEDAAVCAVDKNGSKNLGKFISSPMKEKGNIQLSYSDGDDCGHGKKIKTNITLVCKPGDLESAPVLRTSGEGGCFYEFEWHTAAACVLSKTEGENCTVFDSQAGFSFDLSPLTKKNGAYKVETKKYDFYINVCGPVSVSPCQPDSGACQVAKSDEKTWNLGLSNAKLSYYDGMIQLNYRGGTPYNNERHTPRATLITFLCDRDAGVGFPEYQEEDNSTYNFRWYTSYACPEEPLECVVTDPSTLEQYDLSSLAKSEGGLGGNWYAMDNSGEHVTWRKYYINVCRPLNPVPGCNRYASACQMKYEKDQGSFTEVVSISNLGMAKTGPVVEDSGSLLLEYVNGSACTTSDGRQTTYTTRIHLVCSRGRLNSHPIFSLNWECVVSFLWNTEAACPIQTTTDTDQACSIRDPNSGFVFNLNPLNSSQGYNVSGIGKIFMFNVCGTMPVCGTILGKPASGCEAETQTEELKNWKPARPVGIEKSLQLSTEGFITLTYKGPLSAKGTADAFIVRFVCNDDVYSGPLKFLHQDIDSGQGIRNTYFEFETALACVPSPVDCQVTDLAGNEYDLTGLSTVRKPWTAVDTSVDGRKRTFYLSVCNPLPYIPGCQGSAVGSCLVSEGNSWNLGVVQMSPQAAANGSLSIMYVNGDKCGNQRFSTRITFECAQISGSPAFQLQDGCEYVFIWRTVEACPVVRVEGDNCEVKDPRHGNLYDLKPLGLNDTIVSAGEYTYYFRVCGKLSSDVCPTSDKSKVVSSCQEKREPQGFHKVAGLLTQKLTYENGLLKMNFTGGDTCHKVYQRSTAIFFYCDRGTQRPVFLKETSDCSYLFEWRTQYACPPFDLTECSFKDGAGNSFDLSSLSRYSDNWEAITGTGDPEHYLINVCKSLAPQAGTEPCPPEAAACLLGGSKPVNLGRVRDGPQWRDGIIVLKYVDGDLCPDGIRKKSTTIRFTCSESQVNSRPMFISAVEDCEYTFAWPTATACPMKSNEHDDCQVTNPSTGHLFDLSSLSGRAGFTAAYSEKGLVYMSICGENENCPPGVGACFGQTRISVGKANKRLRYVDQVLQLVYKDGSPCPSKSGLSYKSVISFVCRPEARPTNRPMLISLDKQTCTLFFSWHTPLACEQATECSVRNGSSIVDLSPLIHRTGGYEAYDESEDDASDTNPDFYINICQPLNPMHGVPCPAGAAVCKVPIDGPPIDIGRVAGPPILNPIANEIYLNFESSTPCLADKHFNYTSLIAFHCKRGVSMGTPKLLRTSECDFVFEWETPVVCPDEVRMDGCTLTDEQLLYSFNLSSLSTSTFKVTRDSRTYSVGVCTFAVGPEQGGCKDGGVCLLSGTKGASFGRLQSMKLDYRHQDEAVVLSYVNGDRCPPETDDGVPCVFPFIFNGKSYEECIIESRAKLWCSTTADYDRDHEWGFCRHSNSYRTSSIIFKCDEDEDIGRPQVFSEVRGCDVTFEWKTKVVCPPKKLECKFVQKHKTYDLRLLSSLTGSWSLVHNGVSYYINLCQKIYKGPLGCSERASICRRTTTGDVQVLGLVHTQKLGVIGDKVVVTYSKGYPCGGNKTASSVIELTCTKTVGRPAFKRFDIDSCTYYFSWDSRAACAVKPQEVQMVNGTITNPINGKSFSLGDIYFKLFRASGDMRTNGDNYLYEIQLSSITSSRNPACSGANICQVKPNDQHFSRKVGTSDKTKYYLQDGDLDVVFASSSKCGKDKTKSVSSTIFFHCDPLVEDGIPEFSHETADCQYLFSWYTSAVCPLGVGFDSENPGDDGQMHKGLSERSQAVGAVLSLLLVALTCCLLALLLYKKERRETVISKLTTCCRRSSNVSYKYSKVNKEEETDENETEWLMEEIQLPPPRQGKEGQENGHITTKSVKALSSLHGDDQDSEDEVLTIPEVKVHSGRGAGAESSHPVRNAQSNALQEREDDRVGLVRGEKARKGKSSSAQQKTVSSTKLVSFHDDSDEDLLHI

For `O=C[C@@H](O)[C@@H](O)[C@H](O)[C@H](O)COP(=O)(O)O` [M6P inhibitor, mannose 6-phosphate], the IC50 was 57.2 µM at M6PR [1] and 347 µM at M6PR [2] (1 h exposure to IDUA-myc conditioned medium (~20,000 U/mL), read-out: Median inhibitory concentration (IC50) of IDUA-myc uptake). Moreover, at M6PR [2] (residual uptake under M6P competition), the “M6PR-independent uptake (plateau)” value is recorded as approximately 18%.
